From ChEMBL document CHEMBL1201862, “PubChem BioAssay data set” (2004)
The source made the active and inactive calls.

What was measured:
[1] = tested on: HeLa; experiment: toxicity to human HeLa cells – cell-based, 48 h, plate reader, cherry-picks, cytotoxicity control, dose response (AID 504942); type: functional
[2] = molecular target: T1, Acyl-homoserine lactone acylase PvdQ (Pseudomonas aeruginosa (strain LESB58), UniProt Q9I194); experiment: PvdQ acylase enzyme activity blockers – biochemical, fluorescence, plate reader and imaging, cherry-picks, dose response (AID 493231)
T1 sequence (Q9I194 whole entry): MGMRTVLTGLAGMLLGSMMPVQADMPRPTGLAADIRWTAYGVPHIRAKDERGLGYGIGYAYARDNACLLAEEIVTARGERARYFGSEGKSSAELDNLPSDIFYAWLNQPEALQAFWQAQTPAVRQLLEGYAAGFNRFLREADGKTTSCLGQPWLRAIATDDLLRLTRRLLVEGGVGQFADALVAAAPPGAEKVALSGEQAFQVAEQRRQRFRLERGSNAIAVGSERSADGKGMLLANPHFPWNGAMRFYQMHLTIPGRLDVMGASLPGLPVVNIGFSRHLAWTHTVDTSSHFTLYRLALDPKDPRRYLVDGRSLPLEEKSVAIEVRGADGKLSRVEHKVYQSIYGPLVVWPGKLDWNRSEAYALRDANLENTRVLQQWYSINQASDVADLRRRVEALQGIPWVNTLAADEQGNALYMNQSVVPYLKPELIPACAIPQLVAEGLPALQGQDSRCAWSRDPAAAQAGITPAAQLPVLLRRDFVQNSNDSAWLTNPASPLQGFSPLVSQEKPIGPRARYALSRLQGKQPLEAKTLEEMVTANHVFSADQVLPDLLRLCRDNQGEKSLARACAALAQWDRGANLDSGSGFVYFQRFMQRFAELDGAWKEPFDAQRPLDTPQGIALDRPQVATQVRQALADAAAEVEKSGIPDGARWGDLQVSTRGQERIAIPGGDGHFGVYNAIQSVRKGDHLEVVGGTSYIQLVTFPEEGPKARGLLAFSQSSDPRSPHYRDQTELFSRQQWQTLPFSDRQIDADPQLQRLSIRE

[3] = molecular target: T2, Orexin/Hypocretin receptor type 1 (Homo sapiens, UniProt O43613); experiment: Homogeneous Time Resolved Fluorescence (HTRF)-based cell-based high throughput dose response assay for antagonists of the orexin 1 receptor (OX1R; HCRTR1). [Related pubchem assays (depositor defined):AID434989, AID435008, AID463079, AID485270, AID492963, AID492964, AID492965, AID493232, AID504717, AID504718]; type: functional
T2 sequence (O43613 whole entry): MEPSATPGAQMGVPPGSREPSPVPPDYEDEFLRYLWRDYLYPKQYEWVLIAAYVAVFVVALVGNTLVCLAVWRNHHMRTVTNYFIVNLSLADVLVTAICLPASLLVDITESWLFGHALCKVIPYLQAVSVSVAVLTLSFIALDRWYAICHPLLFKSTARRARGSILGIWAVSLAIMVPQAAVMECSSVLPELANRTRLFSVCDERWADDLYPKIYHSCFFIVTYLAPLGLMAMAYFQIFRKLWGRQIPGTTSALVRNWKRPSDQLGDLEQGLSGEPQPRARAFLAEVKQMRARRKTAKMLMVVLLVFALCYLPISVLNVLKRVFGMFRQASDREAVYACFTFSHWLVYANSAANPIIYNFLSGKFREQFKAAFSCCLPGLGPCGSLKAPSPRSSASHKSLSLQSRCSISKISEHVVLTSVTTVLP

[4] = tested on: CHO-K1; experiment: (§1) Counterscreen for antagonists of the orexin 1 receptor (OX1R; HCRTR1): Homogeneous time resolved fluorescence (HTRF)-based cell-based dose response assay to identify antagonists of the parental CHO-K1 cell line. [Related pubchem assays (depositor defined):AID434989, AID435008, AID463079, AID485270, AID492963, AID492964, AID492965, AID493232, AID504699, AID504701]; type: functional; details: Cricetulus griseus
[5] = molecular target: T3, Orexin receptor type 2 (Homo sapiens, UniProt O43614); experiment: Counterscreen assay for antagonists of the orexin 1 receptor (OX1R; HCRTR1): Fluorescence-based cell-based dose response assay for antagonists of the orexin 2 receptor (OX2R; HCRTR2), run by assay provider.; type: functional
T3 sequence (O43614 whole entry): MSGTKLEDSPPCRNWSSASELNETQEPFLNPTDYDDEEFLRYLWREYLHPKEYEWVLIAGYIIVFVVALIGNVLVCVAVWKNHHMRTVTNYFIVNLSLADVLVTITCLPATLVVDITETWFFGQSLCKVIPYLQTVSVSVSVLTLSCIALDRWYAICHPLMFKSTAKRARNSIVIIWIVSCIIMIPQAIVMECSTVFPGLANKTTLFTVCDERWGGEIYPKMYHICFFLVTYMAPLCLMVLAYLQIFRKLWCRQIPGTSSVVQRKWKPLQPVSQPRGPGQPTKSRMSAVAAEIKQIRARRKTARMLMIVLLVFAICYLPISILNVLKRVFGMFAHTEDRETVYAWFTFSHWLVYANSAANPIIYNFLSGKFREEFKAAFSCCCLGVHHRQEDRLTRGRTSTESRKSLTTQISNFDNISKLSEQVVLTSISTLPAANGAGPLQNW

[6] = molecular target: T3, Orexin receptor type 2; experiment: Counterscreen assay for antagonists of the orexin 1 receptor (OX1R; HCRTR1): Homogeneous Time Resolved Fluorescence (HTRF)-based cell-based dose response assay for antagonists of the orexin 2 receptor (OX2R; HCRTR2), run by assay provider.; type: functional
[7] = molecular target: T2, Orexin/Hypocretin receptor type 1; experiment: Fluorescence-based cell-based high throughput dose response assay for antagonists of the orexin 1 receptor (OX1R; HCRTR1). [Related pubchem assays (depositor defined):AID434989, AID435008, AID463079, AID485270, AID492963, AID492964, AID492965, AID493232, AID504717, AID504718]; type: functional
[8] = as §1, with “Fluorescence-based” for “Homogeneous time resolved fluorescence (HTRF)-based”, “cell-based high throughput” for “cell-based”, “CHO” for “CHO-K1”; type: functional
[9] = tested on: HEK293; experiment: SAR Analysis of small molecule inhibitors of B-cell specific antigen receptor-induced NF-kB activation in a HEK-293T cell line using a luminescence assay - Set 2. [Related pubchem assays (depositor defined):AID435022, AID435025, AID489021]; type: functional, cell-based; details: Homo sapiens
[10] = tested on: HEK293; experiment: HEK293T cell viability loss, resazurin readout – resazurin fluorescence, cytotoxicity control for NF-kB activator project, SAR follow-up (AID 493251); type: functional, cell-based; details: Homo sapiens
[11] = tested on: Jurkat; experiment: SAR Analysis of small molecule inhibitors of […] specific antigen receptor-induced NF-kB activation in a Jurkat cell line using a luminescence assay - Set 3. [Related pubchem assays (depositor defined):AID435022, AID435025, AID465]; type: functional, cell-based; details: Homo sapiens
[12] = microbe, parasite or virus in culture; type: functional; details: Mycobacterium tuberculosis
[13] = A Cell Based Secondary Assay to Explore Cytotoxicity in HepG2 Cells of Compounds that Modulate Mycobacterium tuberculosis in Media Containing Glycerol versus Media without Glycerol (2).; type: functional
[14] = reduction of Shn3 3'UTR-driven luciferase in osteoblasts – cell-based, Clone20 osteoblasts, firefly luciferase, cherry-picked, dose response (AID 624132); type: functional;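 further: firefly luciferase luminescence from reporter carrying the Shn3 3'UTR in osteoblasts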
[15] = THP-1 cell cytotoxicity, dose response, cytotoxicity control for non-replicating M. tuberculosis project (AID 489025); type: functional
[16] = non-specific 3'UTR reporter inhibition in Clone20-Shn3RL – cell-based, Renilla luciferase, cherry-picked, counter-screen for Shn3 inhibitor project, dose response (AID 624133); type: functional
[17] = Vero cell cytotoxicity, cytotoxicity control for M. tuberculosis inhibitor project, purified and synthesized samples, set 3 (AID 504684); type: functional
[18] = cells; type: functional
[19] = Vero E6 cell cytotoxicity, dose response, cytotoxicity control for non-replicating M. tuberculosis project, secondary assay (AID 492998); type: functional, VeroE6; details: Vero C1008
[20] = A Cell Based Secondary Assay to Explore Cytotoxicity in THP-1 Cells of Compounds that Modulate Mycobacterium tuberculosis in Media Containing Glycerol versus Media without Glycerol (2).; type: functional
[21] = molecular target: T4, Caspase-7 (Homo sapiens, UniProt P55210); experiment: potency of procaspase-7 enzyme activation – biochemical, absorbance, human, dual procaspase-3/-7 activator project, dose response (AID 504330)
T4 sequence (P55210 whole entry): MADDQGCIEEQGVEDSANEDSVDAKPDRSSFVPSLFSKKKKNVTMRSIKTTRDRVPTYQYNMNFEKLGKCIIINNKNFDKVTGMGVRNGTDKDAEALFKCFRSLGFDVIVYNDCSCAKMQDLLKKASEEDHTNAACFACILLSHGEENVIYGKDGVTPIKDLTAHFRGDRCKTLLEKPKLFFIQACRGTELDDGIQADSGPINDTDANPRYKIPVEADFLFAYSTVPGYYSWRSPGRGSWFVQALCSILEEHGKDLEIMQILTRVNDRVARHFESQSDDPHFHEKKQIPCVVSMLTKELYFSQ

[22] = tested on: CHO; experiment: CHO cell viability loss, potency – luminescence, cytotoxicity control for TLR9-MyD88 binding inhibitor project, dose response (AID 588339); type: functional, cell-based, hamster; details: Cricetulus griseus;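 further: CHO cells stably coexpressing TLR9 and MyD88 fusions from primary screen; compound exposure lasted 48 hours before viability readout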
[23] = molecular target: T5, Caspase-3 (Homo sapiens, UniProt P42574); experiment: activators of human procaspase-3 D3A mutant – biochemical, absorbance, PC-3 D3A mutant, counter-screen for dual procaspase-3/7 activator project, dose response (AID 504328)
T5 sequence (P42574 whole entry): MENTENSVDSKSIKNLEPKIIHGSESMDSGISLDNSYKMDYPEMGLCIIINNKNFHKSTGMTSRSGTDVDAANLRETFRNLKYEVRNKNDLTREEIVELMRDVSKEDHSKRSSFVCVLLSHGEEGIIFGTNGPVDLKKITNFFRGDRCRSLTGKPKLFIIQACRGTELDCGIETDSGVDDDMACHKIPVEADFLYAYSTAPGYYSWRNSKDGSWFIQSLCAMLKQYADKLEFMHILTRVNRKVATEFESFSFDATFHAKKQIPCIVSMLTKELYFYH

[24] = molecular target: Beta Lactamase (Pseudomonas aeruginosa, UniProt Q932Y6); experiment: BLA reporter interference, concentration series – BLA reporter cells, FRET fluorescence, artefact control for TLR9-MyD88 binding inhibitor project, dose response (AID 588341); type: cell-based;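 further: cell based assay in CHO-K1 cells stably expressing beta-lactamase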
Beta Lactamase, sequence (Q932Y6 whole entry): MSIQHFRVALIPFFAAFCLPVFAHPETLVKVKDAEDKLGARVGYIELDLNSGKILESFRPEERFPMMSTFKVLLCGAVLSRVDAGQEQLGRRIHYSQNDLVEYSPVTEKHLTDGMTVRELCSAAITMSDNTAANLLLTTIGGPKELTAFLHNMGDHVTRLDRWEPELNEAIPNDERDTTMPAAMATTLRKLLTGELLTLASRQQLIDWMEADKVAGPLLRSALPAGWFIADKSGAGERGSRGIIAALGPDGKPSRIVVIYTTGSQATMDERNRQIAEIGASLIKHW

[25] = molecular target: Serine/threonine-protein kinase TAO1 (Homo sapiens, UniProt Q7L7X3); type: functional
[26] = molecular target: Cyclin-dependent kinase 8 (Homo sapiens, UniProt P49336); experiment: Navigating the Kinome. Panel member name: CDK8; type: functional
Cyclin-dependent kinase 8, sequence (P49336 whole entry, canonical isoform): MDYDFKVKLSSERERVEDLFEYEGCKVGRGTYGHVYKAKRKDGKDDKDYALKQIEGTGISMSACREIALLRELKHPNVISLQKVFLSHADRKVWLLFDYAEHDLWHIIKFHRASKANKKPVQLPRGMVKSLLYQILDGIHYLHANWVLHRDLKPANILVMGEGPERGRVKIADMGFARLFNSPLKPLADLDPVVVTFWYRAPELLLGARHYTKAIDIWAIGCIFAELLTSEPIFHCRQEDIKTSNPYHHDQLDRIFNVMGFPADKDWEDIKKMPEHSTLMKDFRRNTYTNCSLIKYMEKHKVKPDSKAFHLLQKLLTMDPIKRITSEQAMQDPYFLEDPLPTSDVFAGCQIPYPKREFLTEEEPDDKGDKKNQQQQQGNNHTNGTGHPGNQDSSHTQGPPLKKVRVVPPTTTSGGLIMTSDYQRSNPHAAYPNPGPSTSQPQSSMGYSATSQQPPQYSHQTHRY

[27] = molecular target: Casein kinase I isoform alpha (Homo sapiens, UniProt P48729); type: functional
Casein kinase I isoform alpha, sequence (P48729 whole entry, canonical isoform): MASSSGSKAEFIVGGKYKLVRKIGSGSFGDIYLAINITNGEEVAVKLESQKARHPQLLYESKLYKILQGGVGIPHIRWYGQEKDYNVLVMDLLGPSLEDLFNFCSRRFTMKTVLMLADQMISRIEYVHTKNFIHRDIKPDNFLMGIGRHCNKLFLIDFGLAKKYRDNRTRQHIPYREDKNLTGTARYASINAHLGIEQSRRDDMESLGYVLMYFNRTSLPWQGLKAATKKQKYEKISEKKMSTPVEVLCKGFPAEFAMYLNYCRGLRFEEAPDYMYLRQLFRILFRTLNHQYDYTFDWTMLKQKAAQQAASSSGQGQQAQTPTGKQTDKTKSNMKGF

[28] = molecular target: Cyclin-dependent kinase 5 (Homo sapiens, UniProt Q00535); type: functional;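 further: CDK5 measured as one member of a kinase profiling panel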
Cyclin-dependent kinase 5, sequence (Q00535 whole entry): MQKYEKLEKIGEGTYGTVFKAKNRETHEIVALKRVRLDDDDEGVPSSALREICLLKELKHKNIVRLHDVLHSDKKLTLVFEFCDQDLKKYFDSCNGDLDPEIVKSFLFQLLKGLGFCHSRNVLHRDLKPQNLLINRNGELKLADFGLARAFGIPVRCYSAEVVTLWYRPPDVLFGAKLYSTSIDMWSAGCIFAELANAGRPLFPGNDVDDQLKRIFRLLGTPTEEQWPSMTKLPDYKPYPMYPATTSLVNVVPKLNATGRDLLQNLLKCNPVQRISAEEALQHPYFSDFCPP

[29] = molecular target: Neuropeptides B/W receptor type 1 (Homo sapiens, UniProt P48145); experiment: human NPBW1 receptor blockade, IC50 – cell-based, fluorescence, dose response, set 6, late-stage follow-up (AID 588583); type: functional
Neuropeptides B/W receptor type 1, sequence (P48145 whole entry): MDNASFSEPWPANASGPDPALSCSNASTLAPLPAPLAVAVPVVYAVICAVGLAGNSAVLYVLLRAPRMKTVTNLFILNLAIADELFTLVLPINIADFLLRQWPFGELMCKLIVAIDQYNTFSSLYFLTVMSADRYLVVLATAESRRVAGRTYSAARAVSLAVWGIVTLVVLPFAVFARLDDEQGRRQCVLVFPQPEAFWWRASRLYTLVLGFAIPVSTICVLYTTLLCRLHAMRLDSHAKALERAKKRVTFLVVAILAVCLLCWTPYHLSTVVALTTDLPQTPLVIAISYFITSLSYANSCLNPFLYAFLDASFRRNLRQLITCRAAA

[30] = molecular target: Melanin-concentrating hormone receptor 1 (Homo sapiens, UniProt Q99705); experiment: Late-stage fluorescence-based counterscreen for antagonists of the G-protein coupled receptor 7 (GPR7): cell-based dose response assay to identify antagonists of the melanin-concentrating hormone receptor 1 (MCHR1) Set 6.; type: functional
Melanin-concentrating hormone receptor 1, sequence (Q99705 whole entry): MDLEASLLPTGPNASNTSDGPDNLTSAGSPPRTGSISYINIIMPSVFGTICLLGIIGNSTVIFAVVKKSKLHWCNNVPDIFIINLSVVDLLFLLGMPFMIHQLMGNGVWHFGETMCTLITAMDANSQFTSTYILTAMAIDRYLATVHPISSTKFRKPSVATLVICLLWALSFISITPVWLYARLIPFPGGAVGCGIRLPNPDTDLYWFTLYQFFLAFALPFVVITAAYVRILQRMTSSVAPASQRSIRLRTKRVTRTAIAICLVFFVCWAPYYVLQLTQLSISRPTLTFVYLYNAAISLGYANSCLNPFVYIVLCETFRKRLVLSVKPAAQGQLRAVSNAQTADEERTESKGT

[31] = molecular target: DNA dC->dU-editing enzyme APOBEC-3G (Homo sapiens, UniProt Q9HC16); experiment: inhibition of APOBEC3G ssDNA deamination – biochemical, fluorescence, single-stranded DNA substrate, SAR follow-up (AID 602136); type: functional; details: read-out: IC50_Mean
[32] = molecular target: DNA dC->dU-editing enzyme APOBEC-3A (Homo sapiens, UniProt P31941); experiment: SAR analysis of small molecule inhibitors of APOBEC3A DNA Deaminase via a fluorescence-based single-stranded DNA deaminase assay.; type: functional; details: read-out: IC50_Mean
DNA dC->dU-editing enzyme APOBEC-3A, sequence (P31941 whole entry): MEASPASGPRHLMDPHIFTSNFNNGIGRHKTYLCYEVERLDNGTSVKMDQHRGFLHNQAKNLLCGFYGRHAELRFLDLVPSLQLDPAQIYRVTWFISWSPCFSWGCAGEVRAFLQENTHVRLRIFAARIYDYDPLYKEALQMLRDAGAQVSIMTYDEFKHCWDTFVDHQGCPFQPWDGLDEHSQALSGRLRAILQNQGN

[33] = molecular target: Cell division cycle 7-related protein kinase (Homo sapiens, UniProt O00311); type: functional;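 further: value obtained from a kinome-wide kinase panel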
Cell division cycle 7-related protein kinase, sequence (O00311 whole entry): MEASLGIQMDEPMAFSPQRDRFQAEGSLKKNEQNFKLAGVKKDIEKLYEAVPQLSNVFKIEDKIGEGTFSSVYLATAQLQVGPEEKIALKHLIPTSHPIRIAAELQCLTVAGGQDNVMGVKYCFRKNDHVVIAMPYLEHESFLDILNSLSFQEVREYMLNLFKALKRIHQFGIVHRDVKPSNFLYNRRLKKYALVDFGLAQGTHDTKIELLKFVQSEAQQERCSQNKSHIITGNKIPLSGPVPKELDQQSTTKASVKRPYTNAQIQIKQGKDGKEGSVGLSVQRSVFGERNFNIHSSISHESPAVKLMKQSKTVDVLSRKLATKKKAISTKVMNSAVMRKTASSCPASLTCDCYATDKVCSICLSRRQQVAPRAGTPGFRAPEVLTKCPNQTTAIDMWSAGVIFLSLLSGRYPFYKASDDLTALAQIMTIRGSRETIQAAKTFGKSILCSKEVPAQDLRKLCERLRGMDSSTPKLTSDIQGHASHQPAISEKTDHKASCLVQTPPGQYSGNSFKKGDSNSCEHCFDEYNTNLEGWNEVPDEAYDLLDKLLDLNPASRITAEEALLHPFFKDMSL

[34] = molecular target: Cyclin-dependent kinase 19 (Homo sapiens, UniProt Q9BWU1); experiment: Navigating the Kinome. Panel member name: CDC2L6; type: functional
Cyclin-dependent kinase 19, sequence (Q9BWU1 whole entry): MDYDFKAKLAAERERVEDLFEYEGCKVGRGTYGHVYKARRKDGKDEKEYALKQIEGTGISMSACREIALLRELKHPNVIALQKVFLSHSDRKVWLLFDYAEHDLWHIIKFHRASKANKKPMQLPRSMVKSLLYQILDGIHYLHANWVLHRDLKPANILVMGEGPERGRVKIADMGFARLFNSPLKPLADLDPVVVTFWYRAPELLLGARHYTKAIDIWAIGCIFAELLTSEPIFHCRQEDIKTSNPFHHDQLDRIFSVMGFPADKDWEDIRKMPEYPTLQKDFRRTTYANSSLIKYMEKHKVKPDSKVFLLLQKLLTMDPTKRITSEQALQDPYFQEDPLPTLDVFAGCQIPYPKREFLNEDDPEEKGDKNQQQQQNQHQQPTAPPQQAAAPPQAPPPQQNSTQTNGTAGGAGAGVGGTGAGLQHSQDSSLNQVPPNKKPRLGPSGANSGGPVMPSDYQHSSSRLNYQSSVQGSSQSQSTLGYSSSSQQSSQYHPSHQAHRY

[35] = tested on: HEK293; experiment: optical interference in Abeta FP readout, dose response, artefact control for IDE activator project, biochemical, fluorescence polarization (AID 588442); type: functional, cell-based; details: Homo sapiens
[36] = molecular target: T6, Insulin-degrading enzyme (Homo sapiens, UniProt P14735); experiment: cellular IDE activation of Abeta substrate cleavage – fluorescence polarization, HEK cells, dose response (AID 588439); type: functional, cell-based
T6 sequence (P14735 whole entry): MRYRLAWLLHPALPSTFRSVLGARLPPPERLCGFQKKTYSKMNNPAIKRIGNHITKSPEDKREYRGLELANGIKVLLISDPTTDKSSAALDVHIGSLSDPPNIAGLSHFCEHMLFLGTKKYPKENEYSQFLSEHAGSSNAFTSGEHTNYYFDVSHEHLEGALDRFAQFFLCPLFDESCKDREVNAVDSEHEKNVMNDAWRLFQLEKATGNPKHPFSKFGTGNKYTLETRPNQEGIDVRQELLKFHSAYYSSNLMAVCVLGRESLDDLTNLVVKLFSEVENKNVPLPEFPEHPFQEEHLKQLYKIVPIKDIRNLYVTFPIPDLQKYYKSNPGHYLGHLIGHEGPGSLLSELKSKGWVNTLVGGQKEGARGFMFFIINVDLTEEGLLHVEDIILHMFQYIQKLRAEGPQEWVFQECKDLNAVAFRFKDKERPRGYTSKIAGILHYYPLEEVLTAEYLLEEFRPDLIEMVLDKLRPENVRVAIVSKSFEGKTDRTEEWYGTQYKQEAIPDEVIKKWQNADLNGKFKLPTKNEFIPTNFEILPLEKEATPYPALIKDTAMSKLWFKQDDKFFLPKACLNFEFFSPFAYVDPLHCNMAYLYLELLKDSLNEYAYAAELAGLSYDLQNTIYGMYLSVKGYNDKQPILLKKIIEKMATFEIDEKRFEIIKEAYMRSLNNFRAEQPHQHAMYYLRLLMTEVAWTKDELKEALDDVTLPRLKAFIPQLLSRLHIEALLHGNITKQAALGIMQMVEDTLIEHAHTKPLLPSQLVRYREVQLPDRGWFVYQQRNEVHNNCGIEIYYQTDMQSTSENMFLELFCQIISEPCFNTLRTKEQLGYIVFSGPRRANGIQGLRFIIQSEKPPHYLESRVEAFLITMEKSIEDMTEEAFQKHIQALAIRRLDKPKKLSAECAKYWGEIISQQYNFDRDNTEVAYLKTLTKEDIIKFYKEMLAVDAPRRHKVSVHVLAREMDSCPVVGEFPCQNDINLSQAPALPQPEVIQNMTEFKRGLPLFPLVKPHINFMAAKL

[37] = tested on: HEK293; experiment: membrane integrity loss in HEK cells – cell-based, fluorescence, cytotoxicity control for IDE activator project, dose response (AID 588440); type: functional; details: Homo sapiens;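 further: cytotoxicity by LDH release measuring loss of membrane integrity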
[38] = molecular target: T6, Insulin-degrading enzyme; experiment: recombinant IDE activation, cell-free – biochemical, fluorescence polarization, counter-screen for IDE activator project, dose response (AID 588681)

COc1ccc(-c2cc3ncccc3cn2)cc1
AC50 [1]: 72.9 µM (active)
AC50 [2]: 7.13 µM (active)

CSc1cccc(NC(=O)C2CCCN2S(=O)(=O)c2ccc(Br)s2)c1 (stereo not drawn)
IC50 [3]: 93.3 nM (active)
IC50 [4]: > 66.2 µM (inactive)
IC50 [5]: 400 nM (active)
IC50 [6]: 340 nM (active)
IC50 [7]: 800 nM (active)
IC50 [8]: 27.8 µM (inactive)

CCOc1ccc(-c2nc(CSCC(=O)NCC3CCCO3)c(C)o2)cc1 (stereo not drawn)
IC50 [9]: 67.7 µM (inactive)
IC50 [10]: > 80 µM (inactive)
IC50 [11]: > 80 µM (inactive)

Cc1ccc2c(c1)/C(=C1\C(=O)Nc3ccccc31)C(=O)N2C
CC50 [12]: 16.3 µM (active)
CC50 [13]: 12.9 µM (active)
AC50 [14]: 8.85 µM (active)
CC50 [15]: 27 µM (active)
AC50 [16]: 12.1 µM (active)
CC50 [17]: 4.55 µM (active)
IC50 [18]: 1.89 µM (active)
CC50 [19]: 4.76 µM (active)
CC50 [20]: 13.4 µM (active)

COc1ccccc1N1C(=O)C2C(C(=O)c3ccccc3)=NN(c3ccccc3)C2C1=O (stereo not drawn)
EC50 [21]: > 85.3 µM (inactive)
IC50 [22]: > 49.8 µM (inactive)
EC50 [23]: > 85.3 µM (inactive)
IC50 [24]: 9.37 µM (active)

CC(C)(C)c1cc(NC(=O)C(=O)c2cccc3ccccc23)n(-c2ccc(OCCC(N)=O)cc2)n1
Ki [25]: > 6.31 µM (inactive)
Ki [26]: 2 µM (active)
Ki [27]: 3.98 µM (active)
Ki [28]: 1.58 µM (active)

CC(C)(C)OC(=O)C(C#N)c1c(Cl)cnn(Cc2cccc3ccccc23)c1=O (stereo not drawn)
IC50 [29]: 682 nM (active)
IC50 [30]: 682 nM (active)

COc1cc2c(c3oc(=O)c4c(c13)CCC4)C=CC(C)(C)O2
IC50 [31]: > 99 µM (inactive)
IC50 [32]: > 99 µM (inactive)

O=C(O)c1ccccc1Nc1ccnc(NCc2ccccc2)n1
Ki [33]: 50.1 nM (active)
Ki [34]: > 100 µM (inactive)

Cc1ccc(S(=O)(=O)/N=C/c2cc(Br)ccc2O)cc1
EC50 [35]: > 54.7 µM (inactive)
EC50 [36]: > 54.7 µM (inactive)
IC50 [37]: > 89.1 µM (inactive)
EC50 [38]: > 54.7 µM (inactive)
